The supplement of paper PMC10307832

Tests used:
Assay in all cases: relative viability (nuclei count vs DMSO), 5 days (fraction); higher = more cells survive
[1] = compound: CC(C)(C)c1cc(NC(=O)Nc2ccc(-c3cn4c(n3)sc3cc(OCCN5CCOCC5)ccc34)cc2)no1 [Quizartinib] + C[C@@H](Oc1cc(-c2cnn(C3CCNCC3)c2)cnc1N)c1c(Cl)ccc(F)c1Cl [Crizotinib] (partner 1 µM)
Procedure, shortened: (§1)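 Nuclei were stained with Hoechst during a one-step fixation (final 0.05% Triton X-100, 1% formaldehyde, 1 ug/ml Hoechst) carried out 5 days after dosing, then counted on 4× images. The cells, lung cancer lines in 1536-well plates, had been dosed by pin tool the day after seeding with one drug alone or a fixed anchor-drug dose plus five library-drug doses (not always all listed) in √10 steps. Relative viability is the nuclei count in treated wells divided by that in vehicle wells, and each value is the median of duplicate plates.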

[2] = compound: CC(C)(C)c1cc(NC(=O)Nc2ccc(-c3cn4c(n3)sc3cc(OCCN5CCOCC5)ccc34)cc2)no1 [Quizartinib] + Nc1ncn([C@H]2C[C@H](O)[C@@H](CO)O2)c(=O)n1 [Decitabine] (partner 2 µM)
Procedure, shortened: as §1

[3] = compound: COCC[n+]1c2c(n(Cc3cnccn3)c1C)C(=O)c1ccccc1C2=O [YM155] + Cc1cc(Nc2cc(N3CCN(C)CC3)nc(Sc3ccc(NC(=O)C4CC4)cc3)n2)n[nH]1 [Tozasertib] (partner 0.1 µM)
Procedure, shortened: as §1

[4] = compound: COCC[n+]1c2c(n(Cc3cnccn3)c1C)C(=O)c1ccccc1C2=O [YM155] + O=C(CCCCCCC(=O)Nc1ccccc1)NO [Vorinostat] (partner 1 µM)
Procedure, shortened: as §1

Cell Line	relative viability ([1]; first compound 0.001 µM)	relative viability ([1]; first compound 0.003162 µM)	relative viability ([1]; first compound 0.01 µM)	relative viability ([1]; first compound 0.03162 µM)	relative viability ([1]; first compound 0.1 µM)	relative viability ([2]; first compound 0.001 µM)	relative viability ([2]; first compound 0.003162 µM)	relative viability ([2]; first compound 0.01 µM)	relative viability ([2]; first compound 0.03162 µM)	relative viability ([2]; first compound 0.1 µM)	relative viability ([3]; first compound 0.002 µM)	relative viability ([3]; first compound 0.006325 µM)	relative viability ([3]; first compound 0.02 µM)	relative viability ([3]; first compound 0.06325 µM)	relative viability ([4]; first compound 0.002 µM)	relative viability ([4]; first compound 0.006325 µM)	relative viability ([4]; first compound 0.02 µM)	relative viability ([4]; first compound 0.06325 µM)
PC-14	0.839	0.917	1.07	0.814	0.818	0.218	0.198	0.225	0.144	0.324	0.585	0.632	0.629	0.564	0.669	0.694	0.779	0.252
RERF-LC-KJ	0.8	0.596	1	0.795	0.798	0.628	0.73	0.694	0.429	0.628	0.375	0.482	0.563	0.468	0.694	0.794	0.654	0.759
SK-LU-1	0.797	0.785	1.23	0.781	0.914	0.592	0.631	0.756	0.717	0.66	0.293	0.357	0.418	0.341	0.732	0.762	0.845	0.642
SK-MES-1	0.943	0.949	1.12	0.976	0.937	0.414	0.325	0.446	–	0.322	0.853	0.866	0.483	0.267	1	1.17	1.11	0.415
SW 1573	0.611	0.837	0.823	0.803	0.895	0.513	0.476	0.67	–	0.625	0.132	0.155	0.0846	0.0818	0.698	0.731	0.603	0.0728
UMC-11	0.543	0.562	0.739	0.66	0.577	–	0.708	0.638	0.485	0.691	0.209	0.199	0.213	0.212	0.392	0.35	0.377	0.343
